Data published in patent US10813936B2, “Crystalline form of (S)-N-(5-((R)-2-(2,5-difluorophenyl)-pyrrolidin-1-YL)-pyrazolo[1,5-A]pyrimidin-3-YL)-3-hydroxypyrrolidine-1-carboxamide hydrogen sulfate” (Array BioPharma, Inc., priority 2014, dated 2020).
Counter-ions that a name gives are not always drawn.

What was measured:
[1] = Accelerated stability, 40° C./75% RH, five weeks, LDPE bag; type: physicochemical; conditions: for API chemical purity over the course of the stability study: five weeks; for Assay / Chiral Potency / Total Impurities: HPLC
Experimental: Upon removal from the chamber, the samples were physically characterized by appearance, KF, TGA, DSC, XRD and PLM. The samples were also analyzed by HPLC for chromatographic purity, chiral integrity and potency. Where applicable, the data presented in the stability portion also includes the original T=0 data for comparison purposes. The data can be seen in Tables 25-29 and FIGS. 40-44.

[2] = Stability on aluminum slide at 40° Celsius/75% RH; type: physicochemical; conditions: time: I-HS 10 days, HCl 1 hour, HBr 2 weeks, mesylate overnight
[3] = Dynamic vapor sorption (DVS-1 system); type: physicochemical; conditions: for DVS (outcome): form after or during DVS, HCl at 50-60% RH
Experimental: For the DVS measurement a sample of crystalline form (I—HS) was cycled through changing humidity conditions to determine its hygroscopicity. The sample was analyzed using a Surface Measurement System DVS-1 Dynamic Vapor Sorption System. […] Data was collected in 1 minute intervals. Nitrogen was used as the carrier gas. […] After completion of the sorption cycle, the sample was dried using the same procedure, but all the way down to 0% RH and finally taken back to the starting point of 20% RH. The weight change during the sorption/desorption cycles were plotted, allowing for the hygroscopic nature of the sample to be determined.

[4] = test system: xenograph (human) tumor derived from MO-91 cell line; experiment: Xenograft tumor growth, MO-91; type: in vivo, mice; conditions: MO-91 xenograft, oral daily 60 mg/kg or 200 mg/kg
Excerpt: (§1) The three different cancer cell lines, the CUTO-3F cell line, the KM12 cell line, and the MO-91 cell line, each express a different Trk gene fusion. […] Following implantation of one of these three different xenograph (human) tumors in mice, the change in the volume of each tumor was monitored.

[5] = test system: solid tumors with NTRK-fusions; experiment: Phase 1 study: response (RECIST 1.1) in NTRK-fusion patients; type: in vivo, human; conditions: 100 or 150 mg BID
Experimental: Three of the 23 patients harbored NTRK-fusions and were treated at either 100 or 150 mg BID.

[6] = test system: undifferentiated sarcoma with LMNA-NTRK1 fusion; experiment: Phase 1 trial case: patient with undifferentiated sarcoma; type: in vivo, human; conditions: one patient
Excerpt: The patient started cycle 1 day 1 three days later. The patient was seen weekly for pharmacokinetic and safety analysis.

[7] = test system: TEL-TRKC oncoprotein, pAKT, and pERK1/2; experiment: Immunoblot of phosphorylation in MO-91 cells; type: cell-based, human; conditions: low doses, 2 hours
Excerpt: FIG. 13 is an immunoblot showing that the crystalline form (I—HS)inhibits TEL-TRKC kinase and ERK1/2 and AKT activity in MO-91 cells.
(§2) Briefly, cells were lysed in RIPA buffer with Halt Protease and Phosphatase Inhibitor Cocktail (Thermo Scientific) and diluted in loading buffer (LI-COR Biosciences). The membranes were scanned and analyzed using the Odyssey Imaging System and software (LI-COR). The following antibodies were used from Cell Signaling: pTRK Y490 (rabbit polyclonal, #9141), pERK1/2 XP T202/Y204 (#9101), total ERK1/2, pAKT 5473 (rabbit mAb, #4060), and total AKT mouse clone D3A7 (#2920). TRK (C-14) rabbit polyclonal antibody was purchased from Santa Cruz Biotechnology. GAPDH (MAB374) and pTYR (4G10) are from Millipore.

[8] = test system: TPM3-TRKA, pAKT, and pERK1/2; experiment: Immunoblot of phosphorylation in KM12 cells; type: cell-based, human; conditions: low doses, 2 hours
Excerpt: as §2

[9] = test system: xenograph (human) tumor derived from CUTO-3F cell line; experiment: Xenograft tumor growth, CUTO-3F; type: in vivo, mice; conditions: CUTO-3F xenograft, oral daily 60 mg/kg or 200 mg/kg
Excerpt: as §1

[10] = Dynamic vapor sorption (IGAsorp analyzer, 25° C.); type: physicochemical
Experimental: • 1. The hygroscopicity was studied at 25° C. using an IGAsorp analyzer. • 2. About 15 mg of sample was placed in a tared mesh sample holder at an initial ambient room humidity setting of ˜35%. • 3. A total wet/dry nitrogen flow rate of 250 cc/min is used throughout the study. • 4. […] The maximum time allowed at any one humidity set point was 120 min. The sample was maintained under dry N2 after the cycle was completed. Percent weight gain was calculated based on the dry weight basis. Part One: Physical Characterization of Crystalline Form (I—HS)

[11] = test system: MPRIP-TRKA oncoprotein and ERK1/2; experiment: Immunoblot of phosphorylation in CUTO-3F cells; type: cell-based, human; conditions: low doses, 2 hours
Excerpt: as §2

TRKA-SHC1 complexes = experiment: TRK-SHC1 proximity ligation assay in CUTO-3 cells; type: cell-based, human; conditions: 100 nM, 2 hours, versus DMSO
Experimental: PLAs are unique because they can detect functional signaling complexes between a kinase and one of its adaptors in situ. In this assay, TRKA complexed with its preferred adaptor, SHC1, which binds to Y496 in the TRKA kinase domain, was measured (FIG. 17).
Cells were seeded onto glass coverslips (in a 48 well plate) or chamber slides at 25-75 k cells/well. Cells were treated with the indicated doses and times then fixed for 15 minutes by shaking at room temperature in 4% paraformaldehyde. The cells were rinsed twice in PBS, and then the Duolink® in situ PLA® kit from SigmaAldrich in mouse/rabbit (Red) was used according to the manufacturer's protocol (catalog # DUO92101). The antibody concentrations were optimized using immunofluorescence prior to PLA experiments. […] Additionally, samples were treated with 300 mM glycine for 15 minutes prior to the blocking step, otherwise the assay was performed according to the manufacturer's protocol. The cells were mounted using Prolong® gold anti-fade reagent (with DAPI) and cured overnight prior to imaging. The images were either taken on a Nikon standard inverted fluorescent microscope at 40×, or on the 31 Marianas spinning disc confocal in the University of Colorado Anschutz Medical Campus Advance Light Microscopy Core at 40× or 100×. […]

[12] = test system: xenograph (human) tumor derived from KM12 cell line; experiment: Xenograft tumor growth, KM12; type: in vivo, mice; conditions: oral daily 60 mg/kg or 200 mg/kg
Excerpt: as §1

[13] = Phase 1 dose escalation study: safety and pharmacokinetics
Experimental: Response is measured by RECIST Criteria, version 1.1. Serum is collected for pharmacokinetic analysis on Cycle 1 Day 1 and Day 8. Safety information is collected on all patients and the definition of dose-limiting toxicity applies to adverse events regardless of relationship to investigational product.

For `O=C(Nc1cnn2ccc(N3CCC[C@@H]3c3cc(F)ccc3F)nc12)N1CC[C@H](O)C1.O=S(=O)(O)O` [AM(HS), (S)—N-(5-((R)-2-(2,5-difluorophenyl)-pyrrolidin-1-yl)-pyrazolo[1,5-a]pyrimidin-3-yl)-3-hydroxypyrrolidine-1-carboxamide hydrogen sulfate], the “behaviour when exposed to humidity” value [1] was “deliquesced”.
With `Cl.O=C(Nc1cnn2ccc(N3CCC[C@@H]3c3cc(F)ccc3F)nc12)N1CC[C@H](O)C1` [HCl, (S)—N-(5-((R)-2-(2,5-difluorophenyl)pyrrolidin-1-yl)pyrazolo[1,5-a]pyrimidin-3-yl)-3-hydroxypyrrolidine-1-carboxamide hydrochloride] the “Stability at 40° Celsius/75% RH (aluminum slide)” value (“Stability at 40° Celsius/75% RH” for short) [2] was “form change” and the “DVS (outcome)” value [3] was “form change”.
With `CS(=O)(=O)O.O=C(Nc1cnn2ccc(N3CCC[C@@H]3c3cc(F)ccc3F)nc12)N1CC[C@H](O)C1` [Mesylate, (S)—N-(5-((R)-2-(2,5-difluorophenyl)pyrrolidin-1-yl)pyrazolo[1,5-a]pyrimidin-3-yl)-3-hydroxypyrrolidine-1-carboxamide methanesulfonate] the “Stability at 40° Celsius/75% RH” value [2] was “Deliquesced” and the “DVS (outcome)” value [3] was “(crystalline)”.
In the case of `Br.O=C(Nc1cnn2ccc(N3CCC[C@@H]3c3cc(F)ccc3F)nc12)N1CC[C@H](O)C1` [HBr, (S)—N-(5-((R)-2-(2,5-difluorophenyl)pyrrolidin-1-yl)pyrazolo[1,5-a]pyrimidin-3-yl)-3-hydroxypyrrolidine-1-carboxamide hydrobromide], the “Stability at 40° Celsius/75% RH” value [2] is reported as “amorphous” and the “DVS (outcome)” value [3] is reported as “(deliquesced)”.
For `O=C(Nc1cnn2ccc(N3CCC[C@@H]3c3cc(F)ccc3F)nc12)N1CC[C@H](O)C1` [crystalline form (I—HS), (S)—N-(5-((R)-2-(2,5-difluorophenyl)-pyrrolidin-1-yl)-pyrazolo[1,5-a]pyrimidin-3-yl)-3-hydroxypyrrolidine-1-carboxamide hydrogen sulfate], the “growth of xenograft tumor” value [4] was “effectively halt the growth, or decrease the rate of growth”, the “response of the three NTRK-fusion patients” value [5] was “partial response” and the “response by RECIST 1.1” value ([6]; 100 mg twice daily, CT prior to cycle 2 and cycle 3) was “partial response”. The drug-related adverse events ([6]; 4-week period of cycle 1) was “No drug-related adverse events”, the “adverse events attributed to the drug” value ([6]; after four months of dosing) was “did not have any adverse events” and the oxygen saturation ([6]; on room air, after treatment (baseline 90% with 5 L oxygen)) was 97%. The CA125 levels ([6]; over cycle 1) was “normalized”, the “inhibition of phosphorylation of the TEL-TRKC oncoprotein, pAKT, and pERK1/2” value [7] was “inhibition” and the “inhibition of phosphorylation of TPM3-TRKA, pAKT, and pERK1/2” value [8] was “inhibition”. The “growth of xenograft tumor” value [9] was “effectively halt the growth, or decrease the rate of growth”, the “hygroscopicity (DVS)” value [10] was “not hygroscopic” and the “Stability at 40° Celsius/75% RH” value [2] was “No form change”. The “Peak Area Percent, RRT 0.793” value ([1]; 40 C/75% RH, 5 wks.) was 0.07 Peak Area Percent, the “Peak Area Percent, RRT 0.863” value ([1]; 40 C/75% RH, 5 wks.) was 0.00 Peak Area Percent and the “Peak Area Percent, RRT 0.981” value ([1]; 40 C/75% RH, 5 wks.) was 0.00 Peak Area Percent. The “Peak Area Percent, RRT 1.000” value ([1]; 40 C/75% RH, 5 wks.) was 99.93 Peak Area Percent, the “Peak Area Percent, RRT 1.535” value ([1]; 40 C/75% RH, 5 wks.) was 0.00 Peak Area Percent and the Appearance ([1]; 40° C./75% RH, 5 wks.) was “Orange Powder free”. The KF ([1]; 40° C./75% RH, 5 wks.) was 0.21 w/w %, the “API chemical purity over the course of the stability study” value ([1]; 40° C./75% RH) was “did not change significantly” and the Assay ([1]; 40° C./75% RH, 5 wks.) was 79.6%. For the same molecule, the “Chiral Potency” value ([1]; 40° C./75% RH, 5 wks.) was 99.6%, the “Total Impurities” value ([1]; 40° C./75% RH, 5 wks.) was 0.07% and the Assay ([1]; time point 0 wks.) was 79.4%. For the same molecule, the “Chiral Potency” value ([1]; time point 0 wks.) was 99.6%, the “Total Impurities” value ([1]; time point 0 wks.) was 0.14% and the Appearance ([1]; time point 0 wks.) was “Orange Powder free”. For the same molecule, the KF ([1]; time point 0 wks.) was 0.28 w/w %, the “Peak Area Percent, RRT 0.793” value ([1]; time point 0 wks.) was 0.07 Peak Area Percent and the “Peak Area Percent, RRT 0.863” value ([1]; time point 0 wks.) was 0.00 Peak Area Percent. The “Peak Area Percent, RRT 0.981” value ([1]; time point 0 wks.) was 0.00 Peak Area Percent, the “Peak Area Percent, RRT 1.000” value ([1]; time point 0 wks.) was 99.86 Peak Area Percent and the “Peak Area Percent, RRT 1.535” value ([1]; time point 0 wks.) was 0.07 Peak Area Percent. The “inhibition of phosphorylation of the MPRIP-TRKA oncoprotein and ERK1/2” value [11] was “inhibition”, the “effect on TRKA-SHC1 complexes (PLA)” value (TRKA-SHC1 complexes) was “disruption of TRKA-SHC1 complexes” and the “growth of xenograft tumor” value [12] was “effectively halt the growth, or decrease the rate of growth”. For the same molecule, the “hygroscopicity (DVS)” value [3] was “non-hygroscopic”, the “increase in mass during the sorption cycle” value ([3]; between 0% and 90% RH) was “about 1.7%” and the “DVS (outcome)” value [3] was “RH No change”. For the same molecule, the “adverse event: Grade 1 and 2 anemia” value ([13]; 23 patients) was 22%, the “adverse event: Grade 1 and 2 dizziness” value ([13]; 23 patients) was 26% and the “adverse event: Grade 1 and 2 fatigue” value ([13]; 23 patients) was 35%. The “patients with dose limiting toxicities” value ([13]; elevated AST grade 3 (150 mg BID), delirium grade 3 unrelated (100 mg BID)) was “Two”.
With `O=C(Nc1cnn2ccc(N3CCC[C@@H]3c3cc(F)ccc3F)nc12)N1CC[C@H](O)C1.O=S(=O)(O)O` [AM(HS)1, (S)—N-(5-((R)-2-(2,5-difluorophenyl)-pyrrolidin-1-yl)-pyrazolo[1,5-a]pyrimidin-3-yl)-3-hydroxypyrrolidine-1-carboxamide hydrogen sulfate] the “Peak Area Percent, RRT 0.793” value ([1]; 40 C/75% RH, 5 wks.) was 0.00 Peak Area Percent, the “Peak Area Percent, RRT 0.863” value ([1]; 40 C/75% RH, 5 wks.) was 1.04 Peak Area Percent and the “Peak Area Percent, RRT 0.981” value ([1]; 40 C/75% RH, 5 wks.) was 0.12 Peak Area Percent. The “Peak Area Percent, RRT 1.000” value ([1]; 40 C/75% RH, 5 wks.) was 98.83 Peak Area Percent, the “Peak Area Percent, RRT 1.535” value ([1]; 40 C/75% RH, 5 wks.) was 0.00 Peak Area Percent and the KF ([1]; 40° C./75% RH, 5 wks.) was 0.56 w/w %. For the same molecule, the “API chemical purity over the course of the stability study” value ([1]; 40° C./75% RH) was “did not change significantly”, the Assay ([1]; 40° C./75% RH, 5 wks.) was 80.3% and the “Chiral Potency” value ([1]; 40° C./75% RH, 5 wks.) was 99.6%. For the same molecule, the “Total Impurities” value ([1]; 40° C./75% RH, 5 wks.) was 1.16%, the Assay ([1]; time point 0 wks.) was 79.5% and the “Chiral Potency” value ([1]; time point 0 wks.) was 99.6%. The “Total Impurities” value ([1]; time point 0 wks.) was 1.10%, the Appearance ([1]; time point 0 wks.) was “Yellow Powder free” and the KF ([1]; time point 0 wks.) was 2.00 w/w %. The “Peak Area Percent, RRT 0.793” value ([1]; time point 0 wks.) was 0.00 Peak Area Percent, the “Peak Area Percent, RRT 0.863” value ([1]; time point 0 wks.) was 0.98 Peak Area Percent and the “Peak Area Percent, RRT 0.981” value ([1]; time point 0 wks.) was 0.12 Peak Area Percent. For the same molecule, the “Peak Area Percent, RRT 1.000” value ([1]; time point 0 wks.) was 98.89 Peak Area Percent and the “Peak Area Percent, RRT 1.535” value ([1]; time point 0 wks.) was 0.00 Peak Area Percent.
